Test results reported in US11472774B2, “Anti-cancer compounds” (The University of Sydney, priority 2018, dated 2022).

biological target: T1, porcine brain tubulin (Sus scrofa, UniProt P02550+P02554); test: Fluorescence-based tubulin polymerization assay; assay type: biochemical; conditions: compared to control (DMSO); 37° C.; FIG. 1 and FIG. 2
T1 construct: purchased Cytoskeleton; host or cells: porcine brain tissue
Experimental: Fluorescence-based tubulin polymerization assay was conducted in a final volume of 55 μL using the Tubulin Polymerization Assay kit (Cytoskeleton, Colo., USA) as per manufacturer's instructions. Briefly, porcine brain tubulin was incubated with test compounds at 37° C. and fluorescence was measured using with Tecan M200 PRO+ microplate reader (Tecan, Switzerland) at 355 nm excitation and 460 nm emission.

T1 sequence (P02550 whole entry): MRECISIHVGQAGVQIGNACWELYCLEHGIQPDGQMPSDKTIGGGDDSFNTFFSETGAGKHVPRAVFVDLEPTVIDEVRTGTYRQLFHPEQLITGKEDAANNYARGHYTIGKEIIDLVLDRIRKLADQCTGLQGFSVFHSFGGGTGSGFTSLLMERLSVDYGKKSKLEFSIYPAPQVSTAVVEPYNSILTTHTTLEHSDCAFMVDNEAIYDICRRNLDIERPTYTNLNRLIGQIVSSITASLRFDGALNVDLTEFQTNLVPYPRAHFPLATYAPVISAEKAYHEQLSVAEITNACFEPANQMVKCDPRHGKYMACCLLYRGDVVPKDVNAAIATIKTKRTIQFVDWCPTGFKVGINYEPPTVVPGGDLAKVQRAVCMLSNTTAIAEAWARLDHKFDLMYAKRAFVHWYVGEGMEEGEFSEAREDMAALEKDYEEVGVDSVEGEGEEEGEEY
T1 sequence (P02554 whole entry): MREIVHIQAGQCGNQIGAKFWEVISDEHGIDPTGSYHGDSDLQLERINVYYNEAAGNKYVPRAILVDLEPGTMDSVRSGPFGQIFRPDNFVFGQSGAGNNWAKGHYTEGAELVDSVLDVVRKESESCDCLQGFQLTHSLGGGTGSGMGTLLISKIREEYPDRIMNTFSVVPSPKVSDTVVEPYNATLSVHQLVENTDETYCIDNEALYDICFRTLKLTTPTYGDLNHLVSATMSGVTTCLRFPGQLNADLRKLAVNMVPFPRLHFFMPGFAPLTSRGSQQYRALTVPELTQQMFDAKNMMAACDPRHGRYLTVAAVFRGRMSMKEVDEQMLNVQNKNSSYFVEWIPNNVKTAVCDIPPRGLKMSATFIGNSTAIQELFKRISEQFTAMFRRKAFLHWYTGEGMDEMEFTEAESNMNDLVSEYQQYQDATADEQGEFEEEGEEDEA

| Structure (SMILES) | effect on tubulin polymerization |
| --- | --- |
| O=C(CCCc1ccc(-c2ccccc2F)cc1)Nc1cccnc1 [WJA69b, 4-(2′-fluoro-[1,1′-biphenyl]-4-yl)-N-(pyridin-3-yl)butanamide] | inhibited tubulin polymerization |
| O=C(NCCCc1ccc(-c2ccccc2F)cc1)c1cccnc1 [WJA88, N-(3-(2′-Fluoro-[1,1′-Biphenyl]-4-yl)Propyl)Nicotinamide] | inhibited tubulin polymerization |
| CC(=O)O[C@H]1C(=O)[C@@]2(C)[C@H]([C@H](OC(=O)c3ccccc3)[C@]3(O)C[C@H](OC(=O)[C@H](O)[C@@H](NC(=O)c4ccccc4)c4ccccc4)C(C)=C1C3(C)C)[C@]1(OC(C)=O)CO[C@@H]1C[C@@H]2O [paclitaxel] | enhanced tubulin polymerization |
| CC[C@]1(O)C[C@@H]2CN(CCc3c([nH]c4ccccc34)[C@@](C(=O)OC)(c3cc4c(cc3OC)N(C)[C@H]3[C@@](O)(C(=O)OC)[C@H](OC(C)=O)[C@]5(CC)C=CCN6CC[C@]43[C@@H]65)C2)C1 [vinblastine] | inhibited tubulin polymerization |
